Measurements: patent publication US9156831B2, “Chemical compounds” (ASTRAZENECA AB, priority 2013, dated 2015)

How the values were obtained:
Test in all cases: Cell proliferation assay (MTS)
Assay type in all cases: cell-based, human
CAMA1 = system: CAMA1
Method: (§1) The sensitivity of a panel of human cancer cell lines to the effects of compounds was determined in a standard proliferation assay. Cell lines were sourced through the AstraZeneca Cell Bank.
(§2) Cells were plated in 96 well plates at densities of 1000-6000 cells per well in RPMI media containing 10% FBS. After incubation at 37° C. for 16 hours, various concentrations of compound were added to the assay plates. After incubation for an additional 72 h, the viable cells were determined by the addition of MTS reagent (Promega #3582) to each well for 2 h. MTS is a tetrazolium salt that is bioreduced by metabolically active cells in the presence of an electron coupling reagent to formazan. The formazan product was then quantitated by absorbance at 490 nm, as an indicator of the relative number of live cells. In order to determine the GI50 (concentration at which growth of cells was inhibited by 50%) the relative number of cells present at the time of drug addition was determined by comparison with the MTS readout before the drug was added, and this value was subtracted from the 72 hr value of untreated cells as a measure of cell growth during the assay.

ZR751 = system: ZR751
Method: as §1, §2

BEL7404 = system: BEL7404
Method: as §1, §2

HEL9217 = system: HEL9217
Method: as §1, §2

THP1 = system: THP1
Method: as §1, §2

NUGC4 = system: NUGC4
Method: (§3) The sensitivity of a panel of human cancer cell lines to the effects of compounds was determined in a standard proliferation assay.
as §2

CMK = system: CMK
Method: as §3, §2

SW480 = system: SW480
Method: as §3
(§4) Cells were plated in 96 well plates at densities of 1000-6000 cells per well in RPMI media containing 10% FBS. After incubation at 37° C. for 16 hours, various concentrations of compound were added to the assay plates. After incubation for an additional 72 h, the viable cells were determined by the addition of MTS reagent (Promega #3582) to each well for 2 h. […] The formazan product was then quantitated by absorbance at 490 nm, as an indicator of the relative number of live cells. In order to determine the GI50 (concentration at which growth of cells was inhibited by 50%) the relative number of cells present at the time of drug addition was determined by comparison with the MTS readout before the drug was added, and this value was subtracted from the 72 hr value of untreated cells as a measure of cell growth during the assay.

HLE = system: HLE
Method: as §3, §4

SNU638 = system: SNU638
Method: as §1, §2

MOLM13 = system: MOLM13
Method: as §3, §2

H522 = system: H522
Method: as §3, §4

MDAMB453 = system: MDAMB453
Method: as §1, §2

H1703 = system: H1703
Method: as §1, §2

JEKO1 = system: JEKO1
Method: as §1, §2

PANC89 = system: PANC89
Method: as §3, §2

MOLP8 = system: MOLP8
Method: as §1, §2

ARH77 = system: ARH77
Method: as §3, §2

H2126 = system: H2126
Method: as §1, §2

HUPT4 = system: HUPT4
Method: as §3, §2

HCC1395 = system: HCC1395
Method: as §3, §4

CFPAC1 = system: CFPAC1
Method: as §1, §2

QGP1 = system: QGP1
Method: as §3, §4

647V = system: 647V
Method: as §3, §4

HS766T = system: HS766T
Method: as §1, §2

OCILY19 = system: OCILY19
Method: as §3, §2

SNU354 = system: SNU354
Method: as §3, §4

RPM18226 = system: RPM18226
Method: as §3, §4

SC1 = system: SC1
Method: as §3, §4

EBC1 = system: EBC1
Method: as §3, §4

SNU761 = system: SNU761
Method: as §3, §2

H358 = system: H358
Method: as §3, §4

ASPC1 = system: ASPC1
Method: as §3, §2

HCC15 = system: HCC15
Method: as §3, §2

LS180 = system: LS180
Method: as §3, §4

BXPC3 = system: BXPC3
Method: as §3, §4

SNU449 = system: SNU449
Method: as §3, §4

RERFLCAI = system: RERFLCAI
Method: as §3, §2

H1793 = system: H1793
Method: as §3, §2

KP4 = system: KP4
Method: as §1, §2

PC3 = system: PC3
Method: as §3, §2

AGS = system: AGS
Method: as §3, §2

MDAMB231 = system: MDAMB231
Method: as §3, §4

[1] = Homo sapiens, Blood/lymph, PIK3CA WT
[2] = Homo sapiens, Pancreas, PIK3CA WT

## CCn1nc(C2CCN(C(=O)CCO)CC2)nc1-c1cnc(N)c(-c2nnc(C(C)(C)C)o2)n1 [Example 3, 1-(4-(5-(5-amino-6-(5-tert-butyl-1,3,4-oxadiazol-2-yl)pyrazin-2-yl)-1-ethyl-1H-1,2,4-triazol-3-yl)piperidin-1-yl)-3-hydroxypropan-1-one]
CAMA1
  Category: Resistant (resistant (GI50>1.0 μM))
CAMA1; Homo sapiens, CAMA-1, Breast, PIK3CA WT
  GI50: 15.5 µM
ZR751
  Category: Resistant (resistant (GI50>1.0 μM))
ZR751; Homo sapiens, ZR-75-1, Breast, PIK3CA WT
  GI50: 3.56 µM
BEL7404
  Category: Resistant (resistant (GI50>1.0 μM))
BEL7404; Homo sapiens, BEL-7404, Liver, PIK3CA WT
  GI50: 14.9 µM
HEL9217
  Category: Resistant (resistant (GI50>1.0 μM))
HEL9217; Homo sapiens, HEL 92.1.7, Blood/lymph, PIK3CA INCON
  GI50: 30 µM
THP1
  Category: Sensitive (sensitive (GI50<=1.0 μM))
THP1; Homo sapiens, THP-1, Blood/lymph, PIK3CA WT
  GI50: 528 nM
NUGC4
  Category: Resistant (resistant (GI50>1.0 μM))
NUGC4; Homo sapiens, NUGC-4, Stomach, PIK3CA WT
  GI50: 30 µM
CMK
  Category: Resistant (resistant (GI50>1.0 μM))
CMK; [1]
  GI50: 28.9 µM
SW480
  Category: Resistant (resistant (GI50>1.0 μM))
SW480; Homo sapiens, Colon, PIK3CA WT
  GI50: 15.9 µM
HLE
  Category: Resistant (resistant (GI50>1.0 μM))
HLE; Homo sapiens, Liver, PIK3CA WT
  GI50: 13.5 µM
SNU638
  Category: Resistant (resistant (GI50>1.0 μM))
SNU638; Homo sapiens, SNU-638, Stomach, PIK3CA WT
  GI50: 8.22 µM
MOLM13
  Category: Resistant (resistant (GI50>1.0 μM))
MOLM13; Homo sapiens, MOLM-13, Blood/lymph, PIK3CA WT
  GI50: 1220 nM
H522
  Category: Resistant (resistant (GI50>1.0 μM))
H522; Homo sapiens, NCI-H522, Lung, PIK3CA WT
  GI50: 15.6 µM
MDAMB453
  Category: Sensitive (sensitive (GI50<=1.0 μM))
MDAMB453; Homo sapiens, MDA-MB-453, Breast, PIK3CA MUT
  GI50: 456 nM
H1703
  Category: Sensitive (sensitive (GI50<=1.0 μM))
H1703; Homo sapiens, NCI-H1703, Lung, PIK3CA WT
  GI50: 514 nM
JEKO1
  Category: Sensitive (sensitive (GI50<=1.0 μM))
JEKO1; Homo sapiens, JeKo-1, Blood/lymph, PIK3CA WT
  GI50: 499 nM
PANC89
  Category: Resistant (resistant (GI50>1.0 μM))
PANC89; [2]
  GI50: 1620 nM
MOLP8
  Category: Resistant (resistant (GI50>1.0 μM))
MOLP8; Homo sapiens, MOLP-8, Blood/lymph, PIK3CA WT
  GI50: 3.29 µM
ARH77
  Category: Resistant (resistant (GI50>1.0 μM))
ARH77; Homo sapiens, ARH-77, Blood/lymph, PIK3CA WT
  GI50: 30 µM
H2126
  Category: Resistant (resistant (GI50>1.0 μM))
H2126; Homo sapiens, NCI-H2126, Lung, PIK3CA WT
  GI50: 12.9 µM
HUPT4
  Category: Sensitive (sensitive (GI50<=1.0 μM))
HUPT4; Homo sapiens, HuP-T4, Pancreas, PIK3CA WT
  GI50: 641 nM
HCC1395
  Category: Resistant (resistant (GI50>1.0 μM))
HCC1395; Homo sapiens, Breast, PIK3CA WT
  GI50: 21.8 µM
CFPAC1
  Category: Resistant (resistant (GI50>1.0 μM))
CFPAC1; Homo sapiens, CFPAC-1, Pancreas, PIK3CA WT
  GI50: 3.38 µM
QGP1
  Category: Resistant (resistant (GI50>1.0 μM))
QGP1; Homo sapiens, QGP-1, Pancreas, PIK3CA WT
  GI50: 4.87 µM
647V
  Category: Resistant (resistant (GI50>1.0 μM))
647V; Homo sapiens, Bladder, PIK3CA WT
  GI50: 5.46 µM
HS766T
  Category: Resistant (resistant (GI50>1.0 μM))
HS766T; [2]
  GI50: 3.47 µM
OCILY19
  Category: Resistant (resistant (GI50>1.0 μM))
OCILY19; Homo sapiens, OCI-LY19, Blood/lymph, PIK3CA WT
  GI50: 30 µM
SNU354
  Category: Resistant (resistant (GI50>1.0 μM))
SNU354; Homo sapiens, SNU-354, Liver, PIK3CA WT
  GI50: 5.6 µM
RPM18226
  Category: Resistant (resistant (GI50>1.0 μM))
RPM18226; [1]
  GI50: 30 µM
SC1
  Category: Resistant (resistant (GI50>1.0 μM))
SC1; Homo sapiens, SC-1, Blood/lymph, PIK3CA WT
  GI50: 30 µM
EBC1
  Category: Resistant (resistant (GI50>1.0 μM))
EBC1; Homo sapiens, EBC-1, Lung, PIK3CA WT
  GI50: 8.57 µM
SNU761
  Category: Resistant (resistant (GI50>1.0 μM))
SNU761; Homo sapiens, Liver, PIK3CA WT
  GI50: 18.5 µM
H358
  Category: Resistant (resistant (GI50>1.0 μM))
H358; Homo sapiens, NCI-H358, Lung, PIK3CA WT
  GI50: 4.64 µM
ASPC1
  Category: Resistant (resistant (GI50>1.0 μM))
ASPC1; [2]
  GI50: 1740 nM
HCC15
  Category: Resistant (resistant (GI50>1.0 μM))
HCC15; Homo sapiens, Lung, PIK3CA WT
  GI50: 30 µM
LS180
  Category: Resistant (resistant (GI50>1.0 μM))
LS180; Homo sapiens, Colon, PIK3CA MUT
  GI50: 9.94 µM
BXPC3
  Category: Resistant (resistant (GI50>1.0 μM))
BXPC3; Homo sapiens, BXPC-3, Pancreas, PIK3CA WT
  GI50: 14.1 µM
SNU449
  Category: Resistant (resistant (GI50>1.0 μM))
SNU449; Homo sapiens, SNU-449, Liver, PIK3CA WT
  GI50: 5.41 µM
RERFLCAI; Homo sapiens, Lung, PIK3CA WT
  GI50: 30 µM
RERFLCAI; RERFLCAI
  Category: Resistant (resistant (GI50>1.0 μM))
H1793
  Category: Resistant (resistant (GI50>1.0 μM))
H1793; Homo sapiens, NCI-H1793, Lung, PIK3CA WT
  GI50: 7.33 µM
KP4
  Category: Resistant (resistant (GI50>1.0 μM))
KP4; Homo sapiens, KP-4, Pancreas, PIK3CA WT
  GI50: 15.1 µM
PC3
  Category: Resistant (resistant (GI50>1.0 μM))
PC3; Homo sapiens, PC-3, Prostate, PIK3CA WT
  GI50: 3.83 µM
AGS
  Category: Resistant (resistant (GI50>1.0 μM))
AGS; Homo sapiens, Stomach, PIK3CA MUT
  GI50: 1410 nM
MDAMB231
  Category: Resistant (resistant (GI50>1.0 μM))
MDAMB231; Homo sapiens, MDA-MB-231, Breast, PIK3CA WT
  GI50: 23.6 µM
